Assays:
Assay type in all cases: ADME, cell-based; call rule not given here
[1] = tested on: A549; test: Drug uptake in human A549 cells at 250 kBq after 30 mins by gamma-counting; details: a549, 0.5 h
[2] = tested on: A549; test: Drug uptake in human A549 cells at 250 kBq after 20 mins by gamma-counting; details: a549, 20 min
[3] = tested on: A549; test: Drug uptake in human A549 cells at 250 kBq after 30 mins by gamma-counting in presence of L-glutamic acid; details: a549, 0.5 h
[4] = tested on: HT-29; test: Drug uptake in human HT-29 cells at 250 kBq after 20 mins by gamma-counting in presence of L-glutamic acid; details: ht-29, 20 min
[5] = tested on: A549; test: Drug uptake in human A549 cells at 250 kBq by gamma-counting; details: TDE = time-dependent effect
[6] = tested on: HT-29; test: Drug uptake in human HT-29 cells at 250 kBq after 20 mins by gamma-counting; details: ht-29, 20 min
[7] = tested on: A549; test: Drug uptake in human A549 cells at 250 kBq after 30 mins by gamma-counting in presence of D-glucose; details: a549, 0.5 h
[8] = tested on: HT-29; test: Drug uptake in human HT-29 cells at 250 kBq after 20 mins by gamma-counting in presence of D-glucose; details: ht-29, 20 min

N[C@@H](C[C@H](F)C(=O)O)C(=O)O
Drug uptake [1]: Active

N[C@@H](C[C@@H](F)C(=O)O)C(=O)O
Drug uptake [1]: Active

N[C@@H](CC([18F])C(=O)O)C(=O)O (stereo not given in full)
Drug uptake [2]: 9.3% | Drug uptake [1]: 12% | Drug uptake [3]: Not Active | Drug uptake [4]: Not Active | Drug uptake [5]: tde | Drug uptake [6]: 4%

OC[C@H]1O[C@@H](O)[C@H]([18F])[C@@H](O)[C@@H]1O [FLUDEOXYGLUCOSE-F18]
Drug uptake [7]: Not Active | Drug uptake [8]: Not Active
